This is an account of results in US8389568B2, “IDO inhibitors and methods of use thereof” (Lankenau Institute for Medical Research, priority 2007, dated 2013).

One test deals with human IDO (Homo sapiens, UniProt P14902). Put plainly: IDO inhibition enzyme assay (N-formylkynurenine/kynurenine formation read at 490 nm).
human IDO, sequence (P14902 whole entry): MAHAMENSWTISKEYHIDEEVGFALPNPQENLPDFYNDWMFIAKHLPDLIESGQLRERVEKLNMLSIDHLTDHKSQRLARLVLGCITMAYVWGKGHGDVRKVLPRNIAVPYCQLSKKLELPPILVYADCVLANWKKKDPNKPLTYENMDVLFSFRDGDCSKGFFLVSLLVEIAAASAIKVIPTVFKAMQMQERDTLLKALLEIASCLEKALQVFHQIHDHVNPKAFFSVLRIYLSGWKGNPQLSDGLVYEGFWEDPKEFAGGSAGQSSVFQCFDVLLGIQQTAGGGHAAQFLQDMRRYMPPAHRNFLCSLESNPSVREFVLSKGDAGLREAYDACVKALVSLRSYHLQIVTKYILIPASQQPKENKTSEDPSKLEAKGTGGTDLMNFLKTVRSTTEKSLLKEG
Details: not given
The test is classed as biochemical. How it is done:
Compounds of the instant invention were analyzed for inhibition of human IDO. The assay was conducted according to a literature protocol, with ascorbic acid and methylene blue serving the role of reductant (Littlejohn et al. (2000) Protein Expression and Purification, 19:22-29; Sono et al. (1989) J. Biol. Chem., 264:1616-1622). […] The enzyme assay monitored for formation of N-formylkynurenine by hydrolyzing the formyl group and spectrophotometrically analyzing for the conjugated imine generated from kynurenine and 4-(dimethylamino) benzaldehyde.
Specifically, the inhibition assays were performed in a 96-well microtiter plate as previously described with a small modification (Littlejohn et al. (2000) Prot. Expr. Purif., 19:22-29). Briefly, the reaction mixture contained 50 mM potassium phosphate buffer (pH 6.5), 40 mM ascorbic acid, 400 μg/ml catalase, 20 μM methylene blue and purified recombinant IDO(1) optimized based on its activity. The reaction mixture was added to the substrate, L-tryptophan (L-Trp), and the inhibitor. The L-Trp was serially diluted from 200 to 25 μM and the inhibitors were tested at two concentrations, 200 and 400 μM. The reaction was carried out at 37° C. for 60 minutes and stopped by adding 30% (w/v) trichloroacetic acid. The plate was heated at 65° C. for 15 minutes to convert formylkynurenine to kynurenine and then was spun at 6000 g for 5 minutes. Finally 100 μl supernatant from each well was transferred to a new 96 well plate and mixed with 2% (w/v) p-dimethylamino-benzaldehyde in acetic acid. The yellow color generated from the reaction with kynurenine was measured at 490 nm using a Synergy HT microtiter plate reader (Bio-Tek, Winooski, Vt.). The data was analyzed using Graph Pad Prism 4 software (Graph Pad Software Inc., San Diego, Calif.).
In the case of `CC1(C)C=CC2=C(O1)C(=O)c1ccccc1C2=O` [Compound 8, 2,2-dimethyl-2H-benzo[g]chromene-5,10-dione], the half-maximal inhibitory concentration (IC50) – broadly, the concentration that inhibits the measured activity by half – stood at 155 nM.

The test is the same for the next values; noted with them: purified recombinant IDO(1); L-Trp substrate; ascorbic acid/methylene blue reductant, catalase; pH 6.5; 37° C. for 60 minutes; read-out: IC50.
Turning to `CC1(C)OC2=C(C(=O)c3ccccc3C2=O)[C@@H](O)[C@@H]1Br` (relative stereo) [Compound 27], the IC50 was 290 nM. As to `C=CCN[C@H]1C2=C(OC(C)(C)[C@H]1O)C(=O)c1ccccc1C2=O` (stereo in doubt) [Compound 17, 4-(allylamino)-3-hydroxy-2,2-dimethyl-3,4-dihydro-2H-benzo[g]chromene-5,10-dione], the IC50 came to 183 nM.

Take `CCCCN[C@H]1C2=C(OC(C)(C)[C@H]1O)C(=O)c1ccccc1C2=O` (stereo in doubt) [Compound 19, 4-(butylamino)-3-hydroxy-2,2-dimethyl-3,4-dihydro-2H-benzo[g]chromene-5,10-dione]: the concentration for half-maximal inhibition (IC50) is 160 nM.

As to `CCCCN[C@H]1C2=C(OC(C)(C)[C@@H]1O)C(=O)c1ccccc1C2=O` (stereo in doubt) [Compound 20, 4-(butylamino)-3-hydroxy-2,2-dimethyl-3,4-dihydro-2H-benzo[g]chromene-5,10-dione], the concentration for half-maximal inhibition (IC50) is 70 nM. Still for that read-out and setting: with `CO[C@H]1C2=C(OC(C)(C)[C@H]1O)C(=O)c1ccccc1C2=O` (stereo in doubt) [Compound 21, 3-hydroxy-4-methoxy-2,2-dimethyl-3,4-dihydro-2H-benzo[g]chromene-5,10-dione] the figure was 976 nM.

As to `CO[C@H]1C2=C(OC(C)(C)[C@@H]1O)C(=O)c1ccccc1C2=O` (stereo in doubt) [Compound 22, 3-hydroxy-4-methoxy-2,2-dimethyl-3,4-dihydro-2H-benzo[g]chromene-5,10-dione], the half-inhibitory concentration (IC50) amounted to 3960 nM. The same measure, in the same setting: with `CC1(C)OC2=C(C(=O)c3ccccc3C2=O)[C@H](O)[C@@H]1O` [Compound 12, (3S,4S)-3,4-dihydroxy-2,2-dimethyl-3,4-dihydro-2H benzo[g]chromene-5,10-dione] the figure was 1500 nM; with `CC1(C)OC2=C(C(=O)c3ccccc3C2=O)C2OC21` (centres unmarked) [Compound 14, 2,2-dimethyl-9a,9b-dihydro-1aH-benzo[g]oxireno[2,3-c]chromene-4,9(2H,3aH)-dione], 3300 nM.

With `CC1(C)C=CC2=C(O1)C(=O)c1cccc(O)c1C2=O` [Compound 28, 6-hydroxy-2,2-dimethyl-2H-benzo[g]chromene-5,10-dione], the half-inhibitory concentration (IC50) came to 58 nM. Consider `COC(=O)C1(C)C=CC2=C(O1)C(=O)c1ccccc1C2=O` (centres unmarked) [Compound 29, methyl 2-methyl-5,10-dioxo-5,10-dihydro-2H-benzo[g]chromene-2-carboxylate], for which the half-maximal inhibitory concentration (IC50) was found to be 161 nM.
